Assay results from US20230089867A1, “CYCLIC PENTAMER COMPOUNDS AS PROPROTEIN CONVERTASE SUBTILISIN/KEXIN TYPE 9 (PCSK9) INHIBITORS FOR THE TREATMENT OF METABOLIC DISORDER” (Novartis AG, priority 2018, published 2023).

Molecular target: human PCSK9 (Homo sapiens, UniProt Q8NBP7)
Assay: PCSK9 ligand binding TR-FRET assay (interference with binding of human PCSK9 to human LDLR)
Conditions: for Max % inhibition: PCSK9 FRET assay, efficacy (Amax), 100% = 1 uM unlabeled human PCSK9, 0% = DMSO; for IC50: TR-FRET, human PCSK9 Alexa Fluor 647 / human LDLR extracellular domain-Europium Kryptate, read-out: PCSK9 FRET Assay IC50
Method in brief: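 Threefold compound dilutions were pre-incubated 30 min with PCSK9, after which 4 nM Europium Kryptate-tagged human LDLR ectodomain was added for a further 2 h.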

Sequence of human PCSK9 (Q8NBP7 153-692): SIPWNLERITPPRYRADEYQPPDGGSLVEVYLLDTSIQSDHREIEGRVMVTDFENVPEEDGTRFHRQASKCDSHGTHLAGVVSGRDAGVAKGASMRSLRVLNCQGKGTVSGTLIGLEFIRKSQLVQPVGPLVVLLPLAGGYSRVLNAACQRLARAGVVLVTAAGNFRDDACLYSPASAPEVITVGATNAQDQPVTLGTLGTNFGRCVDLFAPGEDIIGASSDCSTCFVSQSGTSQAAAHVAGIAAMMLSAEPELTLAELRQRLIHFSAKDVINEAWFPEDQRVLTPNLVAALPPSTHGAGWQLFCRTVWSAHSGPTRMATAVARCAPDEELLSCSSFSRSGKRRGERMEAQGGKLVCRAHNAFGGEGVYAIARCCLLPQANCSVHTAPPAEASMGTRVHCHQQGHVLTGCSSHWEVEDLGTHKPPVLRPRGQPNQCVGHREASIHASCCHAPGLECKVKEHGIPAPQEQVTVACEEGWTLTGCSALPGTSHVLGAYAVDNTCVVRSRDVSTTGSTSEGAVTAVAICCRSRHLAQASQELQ
Sequence of human PCSK9 (Q8NBP7 31-152 partner limits assumed): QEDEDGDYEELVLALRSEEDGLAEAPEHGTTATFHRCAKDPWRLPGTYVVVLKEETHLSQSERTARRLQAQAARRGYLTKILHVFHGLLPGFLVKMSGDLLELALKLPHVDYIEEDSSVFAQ

Row | SMILES | Max % inhibition | IC50
1 | COC[C@@H]1NC(=O)[C@H](C)N(Cc2ccc(Cl)cc2Oc2ccc(-c3cnc(C(C)O)n3C)cc2)C(=O)C[C@@H](Cc2ccccc2)C(=O)N(C)[C@@H](C)CNC(=O)C[C@H](Cc2ccc(Cl)cc2)N(C)C1=O (stereo partly drawn) [Compound 167, (2S,5S,8S,13S,16R)-16-benzyl-1-(4-chloro-2-(4-(2-(1-hydroxyethyl)-1-methyl-1H-imidazol-5-yl)phenoxy)benzyl)-8-(4-chlorobenzyl)-5-(methoxymethyl)-2,7,13,14-tetramethyl-1,4,7,11,14-pentaazacyclooctadecane-3,6,10,15,18-pentaone] | 81.26% | 1.8 nM
2 | CCc1ccc(CN2C(=O)C[C@@H](Cc3ccccc3)C(=O)N(C)[C@H]3CCCC[C@@H]3NC(=O)C[C@H](Cc3ccc(Cl)cc3)N(C)C(=O)[C@H](COC)NC(=O)[C@@H]2C)c(Oc2ccc(-c3cnc(CN4CC5(COC5)C4)n3C)cc2)c1 [Compound 23, (4S,7S,10S,14R,16aS,20aS)-11-(2-(4-(2-(2-oxa-6-azaspiro[3.3]heptan-6-ylmethyl)-1-methyl-1H-imidazol-5-yl)phenoxy)-4-ethylbenzyl)-14-benzyl-4-(4-chlorobenzyl)-7-(methoxymethyl)-5,10,16-trimethylhexadecahydrobenzo[l][1,4,7,11,14]pentaazacyclooctadecine-2,6,9,12,15(3H)-pentaone] | 96.76% | 2.2 nM
3 | C[C@H]1CNC(=O)C[C@H](Cc2ccc(Cl)cc2)NC(=O)[C@H](CF)NC(=O)[C@H](C)N(Cc2ccc(Cl)cc2Oc2ccc(-c3cnc(CN4CCCC4)n3C)cc2)C(=O)C[C@@H](Cc2ccccc2)C(=O)N1C [Compound 25, (2S,5R,8S,13S,16R)-16-benzyl-1-(4-chloro-2-(4-(1-methyl-2-(pyrrolidin-1-ylmethyl)-1H-imidazol-5-yl)phenoxy)benzyl)-8-(4-chlorobenzyl)-5-(fluoromethyl)-2,13,14-trimethyl-1,4,7,11,14-pentaazacyclooctadecane-3,6,10,15,18-pentaone] | 52.86% | 113 nM
4 | COC[C@@H]1NC(=O)[C@H](CCCN2CCOCC2)N(Cc2ccc(Cl)cc2Oc2ccc(-c3cnc(CN4CCCC4)n3C)cc2)C(=O)C[C@@H](Cc2ccccc2)C(=O)N(C)[C@H]2CCCC[C@@H]2NC(=O)C[C@H](Cc2ccc(Cl)cc2)N(C)C1=O [Compound 252, (4S,7S,10S,14R,16aS,20aS)-14-benzyl-11-(4-chloro-2-(4-(1-methyl-2-(pyrrolidin-1-ylmethyl)-1H-imidazol-5-yl)phenoxy)benzyl)-4-(4-chlorobenzyl)-7-(methoxymethyl)-5,16-dimethyl-10-(3-morpholinopropyl)hexadecahydrobenzo[l][1,4,7,11,14]pentaazacyclooctadecine-2,6,9,12,15(3H)-pentaone] | 92.00% | 2.1 nM
5 | C[C@H]1C(=O)N[C@@H](COC(=O)C(C)(C)C)C(=O)N(C)[C@@H](Cc2ccc(Cl)cc2)CC(=O)N[C@H]2CCCC[C@@H]2N(C)C(=O)[C@H](Cc2ccccc2)CC(=O)N1Cc1ccc(Cl)cc1Oc1ccc(-c2cnc(CN(C)C)n2C)cc1 [Compound 226, ((4S,7S,10S,14R,16aS,20aS)-14-benzyl-11-(4-chloro-2-(4-(2-((dimethylamino)methyl)-1-methyl-1H-imidazol-5-yl)phenoxy)benzyl)-4-(4-chlorobenzyl)-5,10,16-trimethyl-2,6,9,12,15-pentaoxodocosahydrobenzo[l][1,4,7,11,14]pentaazacyclooctadecin-7-yl)methyl pivalate] | 42.24% | 249 nM
6 | COC[C@@H]1NC(=O)[C@H](COC)N(Cc2ccc(Cl)cc2Oc2ccc(-c3cnc(CN(C)C)n3C)cc2)C(=O)C[C@@H](Cc2ccccc2)C(=O)N(C)[C@H]2CCCC[C@@H]2NC(=O)C[C@H](Cc2ccc(Cl)cc2)N(C)C1=O [Compound 234, (4S,7S,10S,14R,16aS,20aS)-14-benzyl-11-(4-chloro-2-(4-(2-((dimethylamino)methyl)-1-methyl-1H-imidazol-5-yl)phenoxy)benzyl)-4-(4-chlorobenzyl)-7,10-bis(methoxymethyl)-5,16-dimethylhexadecahydrobenzo[l][1,4,7,11,14]pentaazacyclooctadecine-2,6,9,12,15(3H)-pentaone] | 100.63% | 0.8 nM
7 | COC[C@@H]1NC(=O)[C@H](CCC(=O)N2CC3(COC3)C2)N(Cc2ccc(Cl)cc2Oc2ccc(-c3cnc(CN(C)C)n3C)cc2)C(=O)C[C@@H](Cc2ccccc2)C(=O)N(C)[C@@H](C)CNC(=O)C[C@H](Cc2ccc(Cl)cc2)N(C)C1=O [Compound 95, (2S,5S,8S,13S,16R)-16-benzyl-1-(4-chloro-2-(4-(2-((dimethylamino)methyl)-1-methyl-1H-imidazol-5-yl)phenoxy)benzyl)-8-(4-chlorobenzyl)-5-(methoxymethyl)-7,13,14-trimethyl-2-(3-oxo-3-(2-oxa-6-azaspiro[3.3]heptan-6-yl)propyl)-1,4,7,11,14-pentaazacyclooctadecane-3,6,10,15,18-pentaone] | 104.58% | 0.8 nM
8 | COC[C@@H]1NC(=O)[C@H](CCCN2CCCC2)N(Cc2ccc(Cl)cc2Oc2ccc(-c3cnc(CN(C)C)n3C)cc2)C(=O)C[C@@H](Cc2ccccc2)C(=O)N(C)[C@H]2CCCC[C@@H]2NC(=O)C[C@H](Cc2ccc(Cl)cc2)N(C)C1=O [Compound 251, (4S,7S,10S,14R,16aS,20aS)-14-benzyl-11-(4-chloro-2-(4-(2-((dimethylamino)methyl)-1-methyl-1H-imidazol-5-yl)phenoxy)benzyl)-4-(4-chlorobenzyl)-7-(methoxymethyl)-5,16-dimethyl-10-(3-(pyrrolidin-1-yl)propyl)hexadecahydrobenzo[l][1,4,7,11,14]pentaazacyclooctadecine-2,6,9,12,15(3H)-pentaone] | 99.24% | 0.8 nM
9 | C[C@H]1CNC(=O)C[C@H](Cc2ccc(Cl)cc2)N(C)C(=O)[C@H](C2COC2)NC(=O)[C@H](C)N(Cc2ccc(Cl)cc2Oc2ccc(-c3cnc(CN(C)C)n3C)cc2)C(=O)C[C@@H](Cc2ccccc2)C(=O)N1C [Compound 31, (2S,5S,8S,13S,16R)-16-benzyl-1-(4-chloro-2-(4-(2-((dimethylamino)methyl)-1-methyl-1H-imidazol-5-yl)phenoxy)benzyl)-8-(4-chlorobenzyl)-2,7,13,14-tetramethyl-5-(oxetan-3-yl)-1,4,7,11,14-pentaazacyclooctadecane-3,6,10,15,18-pentaone] | 60.09% | 787 nM
10 | COC[C@@H]1NC(=O)[C@H](C)N(Cc2ccc(Cl)cc2Oc2ccc(-n3cnc(C(=O)NC(C)C)c3C)cc2)C(=O)C[C@@H](Cc2ccccc2)C(=O)N(C)[C@@H](C)CNC(=O)C[C@H](Cc2ccc(Cl)cc2)N(C)C1=O [Compound 163, 1-(4-(2-(((2S,5S,8S,13S,16R)-16-benzyl-8-(4-chlorobenzyl)-5-(methoxymethyl)-2,7,13,14-tetramethyl-3,6,10,15,18-pentaoxo-1,4,7,11,14-pentaazacyclooctadecan-1-yl)methyl)-5-chlorophenoxy)phenyl)-N-isopropyl-5-methyl-1H-imidazole-4-carboxamide] | 84.60% | 135 nM
11 | COC[C@@H]1NC(=O)[C@H](CCN(C)C)N(Cc2ccc(Cl)cc2Oc2ccc(-c3cnc(CN(C)C)n3C)cc2)C(=O)C[C@@H](Cc2ccccn2)C(=O)N(C)[C@H]2CCCC[C@@H]2NC(=O)C[C@H](Cc2ccc(Cl)cc2)N(C)C1=O [Compound 250, (4S,7S,10S,14R,16aS,20aS)-11-(4-chloro-2-(4-(2-((dimethylamino)methyl)-1-methyl-1H-imidazol-5-yl)phenoxy)benzyl)-4-(4-chlorobenzyl)-10-(2-(dimethylamino)ethyl)-7-(methoxymethyl)-5,16-dimethyl-14-(pyridin-2-ylmethyl)hexadecahydrobenzo[l][1,4,7,11,14]pentaazacyclooctadecine-2,6,9,12,15(3H)-pentaone] | 84.24% | 0.4 nM
12 | C[C@H]1CNC(=O)C[C@H](Cc2ccc(Cl)cc2)N(C)C(=O)[C@H](Cc2nnn[nH]2)NC(=O)[C@H](C)N(Cc2ccc(Cl)cc2Oc2ccc(-c3cnc(CN(C)C)n3C)cc2)C(=O)C[C@@H](Cc2ccccc2)C(=O)N1C [Compound 148, (2S,5S,8S,13S,16R)-5-((1H-tetrazol-5-yl)methyl)-16-benzyl-1-(4-chloro-2-(4-(2-((dimethylamino)methyl)-1-methyl-1H-imidazol-5-yl)phenoxy)benzyl)-8-(4-chlorobenzyl)-2,7,13,14-tetramethyl-1,4,7,11,14-pentaazacyclooctadecane-3,6,10,15,18-pentaone] | 94.67% | 29.2 nM
13 | CN(C)Cc1ncc(-c2ccc(Oc3cc(Cl)ccc3CN3C(=O)C[C@@H](Cc4ccccc4)C(=O)N(C)[C@H]4CCCC[C@@H]4NC(=O)C[C@H](Cc4ccc(Cl)cc4)N(C)C(=O)[C@H](CO)NC(=O)[C@H]3CCC(=O)OC(C)(C)C)cc2)n1C [Compound 287, tert-butyl 3-((4S,7S,10R,14R,16aS,20aS)-14-benzyl-11-(4-chloro-2-(4-(2-((dimethylamino)methyl)-1-methyl-1H-imidazol-5-yl)phenoxy)benzyl)-4-(4-chlorobenzyl)-7-(hydroxymethyl)-5,16-dimethyl-2,6,9,12,15-pentaoxodocosahydrobenzo[l][1,4,7,11,14]pentaazacyclooctadecin-10-yl)propanoate] | 89.28% | 2.6 nM
14 | COC[C@@H]1NC(=O)[C@H](C)N(Cc2ccc(Cl)cc2Oc2cccc(C(=O)NC3CCNCC3)c2)C(=O)C[C@@H](Cc2ccccc2)C(=O)N(C)[C@@H](C)CNC(=O)C[C@H](Cc2ccc(Cl)cc2)N(C)C1=O [Compound 113, 3-(2-(((2S,5S,8S,13S,16R)-16-benzyl-8-(4-chlorobenzyl)-5-(methoxymethyl)-2,7,13,14-tetramethyl-3,6,10,15,18-pentaoxo-1,4,7,11,14-pentaazacyclooctadecan-1-yl)methyl)-5-chlorophenoxy)-N-(piperidin-4-yl)benzamide] | 53.35% | 299 nM
